From paper PMC5831858, “Pharmacological characterisation of CR6086, a potent prostaglandin E2 receptor 4 antagonist, as a new potential disease-modifying anti-rheumatic drug” (Arthritis Research & Therapy, 2018)

Key:
[1] = system: arthritic mice (collagen-induced arthritis model); test: FACS analysis of cell populations in the joint, CIA mice; format: in vivo, mouse; settings: CR6086 60 mg/kg, naproxen 60 mg/kg, etanercept 10 mg/kg, mean ± SEM
Procedure: (§1) In a first study, mice were randomised into the following treatment groups: vehicle, 30 mg/kg CR6086, 60 mg/kg CR6086, 60 mg/kg naproxen and 10 mg/kg etanercept. Animals received the test drugs for 10 days. CR6086 and naproxen were administered orally once daily, whereas etanercept was administered intraperitoneally every other day. Animals treated with vehicle, 60 mg/kg CR6086, naproxen and etanercept were additionally analysed for the proportion of populations of Th17 cells, Th1 cells, regulatory T cells, B cells, macrophages, neutrophils and dendritic cells by fluorescence-activated cell sorting (FACS) after collection of blood, draining lymph nodes and joints.

[2] = system: arthritic mice (collagen-induced arthritis model); test: CIA in mice, second study: serum cytokines and signal limb histology; format: in vivo, mouse; settings: 60 mg/kg oral daily, 10 days; mean ± SEM
[3] = system: arthritic mice (collagen-induced arthritis model); test: CIA in mice, first study: clinical score and paw swelling; format: in vivo, mouse; settings: 10 days; CR6086 30 and 60 mg/kg, naproxen 60 mg/kg oral once daily; etanercept 10 mg/kg i.p. every other day
Procedure: Male DBA/1 mice were immunised by intradermal injection at the base of the tail with an emulsion of 200 μg of bCII in CFA containing 3 mg/ml Mycobacterium tuberculosis. Non-immunised mice served as the negative control of disease. Animals were monitored by visual inspection for appearance of peripheral oedema. […] Upon onset, animals were recruited and randomised. Recruitment was given a cut-off at day 40. Upon recruitment, arthritis clinical score was assigned, and oedema was measured via caliper.
as §1
Oedema measurement was performed every day before treatment, and all animals were blindly scored for clinical signs of arthritis as follows: 0 = normal; 1 = slight swelling and/or erythema; 2 = pronounced oedematous swelling; and 3 = ankyloses and severe swelling. A score of 0.5 was given to swollen toe/toes or when inflammation was localised to one part of the foot. Each limb was measured separately, with a final score based on the sum of the scores from all four paws.

IL-17 release = IL-17 release from human Th17 cells; format: cell-based; settings: 1–10 μM
Procedure: PBMCs were purified using Histopaque. CD4^+CD45^+ naive T cells were indirectly selected in a magnetic field (MACS; Miltenyi Biotec). Purified CD4^+ cells were subsequently cultured for 7 days in differentiation medium (RPMI 1640 + FBS 10%, IL-6 30 ng/ml, transforming growth factor [TGF]-β 2.25 ng/ml, IL-23 30 ng/ml, IL-1β 20 ng/ml, anti-interferon (IFN)-γ 1 ng/ml and anti-IL-4 2.5 ng/ml). Th17 cell expansion was stimulated by addition of anti-CD3/[…]anti-CD28 beads to the medium with a cell-to-beads ratio of 1:2. Th17 cells were stimulated with IL-6 30 ng/ml, TGF-β 2.25 ng/ml, IL-23 30 ng/ml, IL-1β 20 ng/ml and PGE2 10 nM for 48 h in the presence of CR6086 (0.03–10 μM) or naproxen (1–10 μM). IL-17 release was measured by ELISA (Abcam, Cambridge, UK).

IL-23 release = IL-23 release from human dendritic cells; format: cell-based; settings: Dendritic cell, at 10 μM, read-out: inhibition of IL-23 release (plateau)
Procedure: PBMCs were purified using Histopaque (Sigma-Aldrich, St. Louis, MO, USA). CD14^+ cells were positively selected in a magnetic field (magnetic-activated cell sorting [MACS]; Miltenyi Biotec, Bergisch Gladbach, Germany). Purified CD14^+ cells were subsequently cultured for 7 days in differentiation medium (RPMI 1640 + 10% FBS, granulocyte-macrophage colony-stimulating factor 50 ng/ml and IL-4 100 ng/ml) and then stimulated with LPS (10 ng/ml), R848 2.5 μg/ml and PGE2 10 nM for 24 h in the presence of CR6086 (0.01–30 μM) or naproxen (1–30 μM). IL-23 release was measured by enzyme-linked immunosorbent assay (ELISA) (R&D Systems, Minneapolis, MN, USA).

rat arthritis models = system: rat arthritis models; parameters: method as in FDA pharmacological review; settings: ref FDA pharmacological review; cited from earlier work
mouse arthritis models = system: mouse arthritis models; parameters: method as in FDA pharmacological review; settings: ref FDA pharmacological review; cited from earlier work

SMILES | B cells, Percentage of total cells [1] | Dendritic cells, Percentage of total cells [1] | Macrophages, Percentage of total cells [1] | Neutrophils, Percentage of total cells [1] | Th1, Percentage of total cells [1] | Th17, Percentage of total cells [1] | Treg, Percentage of total cells [1] | IFNγ serum concentration [2] | IL-10 serum concentration [2] | IL-17 serum concentration [2] | TNFα serum concentration [2] | effect on disease parameters (visual clinical score, paw swelling) vs vehicle [3] | effect on IL-17 release (IL-17 release) | inhibition at 10 µM (IL-23 release) | potency in rat arthritis models (rat arthritis models) | potency in mouse arthritis models (mouse arthritis models)
COc1ccc2cc([C@H](C)C(=O)O)ccc2c1 [Naproxen, naproxen, reference compound] | 5.77 ± 1.16% | 1.96 ± 0.48% | 16.31 ± 4.44% | 16.47 ± 4.48% | 0.35 ± 0.07% | 0.21 ± 0.08% | 0.63 ± 0.22% | 3.48 ± 1.10 pg/mL | 16.21 ± 2.23 pg/mL | 2.58 ± 0.43 pg/mL | 43.01 ± 4.55 pg/mL | ineffective | inactive | ~50% |  | 
C[C@@H]1CCN(C(=O)CC#N)C[C@@H]1N(C)c1ncnc2[nH]ccc12 [tofacitinib] |  |  |  |  |  |  |  |  |  |  |  |  |  |  | 6.2 mg/kg | 50 mg/kg
